Laboratory results taken from US20210290680A1, “METHODS AND COMPOSITIONS FOR MODULATING CELLULAR AGING” (Dorian Therapeutics, Inc., priority 2019, published 2021).

How the values were obtained:
Assay type in all cases: cell-based, human
Axin-2 = assay: qPCR of WNT pathway gene Axin-2; conditions: day 15, n=4; for Axin-2 expression, fold change vs Control: CD19.CAR
Excerpt: (§1) Primary T cells were activated as described (Example 3), transduced with a lentivirus encoding for either a CD19.CAR or a GD2.CAR co-expressing shUSP16 #1, shUSP16 #2 or a scrambled shRNA (Control). Fifteen days post-activation, T cells were collected and qPCR performed. TaqMan probes detecting CDKN1A, CDKN2A (FIGS. 26A and 26B) (fold change GD2.CAR (n=4): CDKN1A Control vs shUSP #1: 0.4360, p<0.0001, and Control vs shUSP16 #2: 3.036, p=0.004 respectively. Fold change CD19.CAR (n=4): CDKN2a, CDKN1A Control vs shUSP #1: 0.6906, p=0.0026; 0.7228, p=0.0297 and Control vs shUSP16 #2: 0.8385, p=0.2325; 0.7017, p=0.0021), TCF7, LEF1, and Axin-2 (FIGS. 27A and B) were analyzed in GD2.CAR and CD19.CAR-expressing cells, respectively. ACTB was used as internal control. (GD2.CAR (n=4) TCF7, LEF1 and Axin-2: Control vs shUSP #1: 1.914 p=0.0512; 1.795 p=0.0323; 3.269 p=0.15 and Control vs shUSP16 #2: 1.284 p=0.0494; 1.718 p=0.0586; 2.035p=0.235, respectively. Fold change CD19.CAR (n=4): TCF7, LEF1 and Axin-2: Control vs shUSP #1: 1.528, p=0.0277; 1.82, p=0.0449; 1.998, p=0.031 and Control vs shUSP16 #2: 1.18, p=0.2002; 1.579, p=0.0632; 1.261, p=0.2382). USP16 downregulation in CAR-T cells results in a decreased expression of senescence markers and an increase in the expression of genes associated with the activation/increased signaling of the WNT pathway, indicating its importance in delaying cellular senescence and increasing self-renewal.

LEF1 = assay: qPCR of WNT pathway regulator LEF1; conditions: for LEF1 expression, fold change vs Control: CD19.CAR; for LEF1 expression, fold change vs Control / LEF1 expression vs Control: day 15, n=4; for LEF1 expression vs Control: GD2.CAR
Excerpt: Primary T cells were activated as described (Example 3), transduced with a lentivirus encoding either a shUSP16 #1, shUSP16 #2 or a non-targeting shRNA (shCtrl) and cells were selected with puromycin at day 6. At day 15 cell were collected and analyzed by qPCR for the expression of LEF1 (FIG. 16A) and TCF7 (FIG. 16B), downstream regulators of the WNT pathway. At day 20, cells were stained for CD4-PE, CD8-BV510, CD62L-Allophycocyanin and CD45RA-APC-Cy7 (Biolegend). Stem cell memory T cells (Tscm) were identified as Sytox^− GFP^+CD45RA^+CD62L^+, central memory T cells (Tcm) as Sytox^−GFP^+CD45RA^−CD62L^+, effector memory T cells (Tem) as Sytox^−GFP^+CD45RA^−CD62L^−, and terminal effector T cell (Teff) as Sytox^−GFP^+CD45RA^+CD62L^− (FIG. 17A). Cells were gated on the CD8 population. The specific increase of Tscm was shown as phenotype ratio (FIG. 17B).
as §1

[1] = tested on: CD19.CAR and GD2.CAR T cells; assay: CAR-T cell proliferation (fold increase compared to control cells)
Excerpt: Plasmids encoding for 2nd generation CAR specific for CD19 (Lenti-EF1a-CD19(FMC63)-2nd-CAR(CD28)-EGFRt) or GD2 (Lenti-EF1a-GD2(14G2a)-2nd-CAR(CD28)-EGFRt) were purchased from Creative Biolabs. The CAR containing plasmids were engineered to co-express a shRNA targeting USP16. The shRNA sequences are: shUSP16 #1 5′-[…]-3′ (SEQ ID NO: 8) and shUSP16 #2 5′-[…]-3′ (SEQ ID NO: 9). Primary T cells were activated as described (Example 3), transduced with a lentivirus encoding for either a CD19.CAR or a GD2.CAR co-expressing shUSP16 #1, shUSP16 #2 or a scrambled shRNA (Control). Cells were cultured in IL-2 and sorted between days 6-13 for EGFRt. Briefly, cells were stained with biotin EGFR antibody (R&D) and magnetically sorted with anti-biotin or streptavidin conjugated beads (Miltenyi Biotec) using the LS columns (Miltenyi Biotec). The positive population was isolated and expanded in regular TC-treated plates or in G-Rex 6 well culture plate (Wilson Wolf). The G-Rex platform was used to achieve a rapid expansion of T cells for in vitro and in vivo applications.
Primary T cells were activated as described (Example 3), transduced with a lentivirus encoding for either a CD19.CAR or a GD2.CAR co-expressing shUSP16 #1, shUSP16 #2 or a scrambled shRNA (Control). Cells were cultured in IL-2 and sorted between days 6-13 for EGFRt. Cells were plated post-sorting with a purity higher than 85% and counted every 2-4 days by Trypan Blue exclusion using Vi-CELL XR cell counter. Fifteen days post-activation both CD19.CAR and GD2.CAR T cells were collected, and qPCR was performed to verify downregulation of USP16 expression (FIG. 24) (fold change GD2.CAR (n=3): Control vs shUSP #1: 0.35, p<0.0001, and Control vs shUSP16 #2: 0.2452, p<0.0001, fold change CD19.CAR (n=4): Control vs shUSP #1: 0.2891, p<0.0001, and Control vs shUSP16 #2: 0.2566, p<0.0001). Proliferation was measured as fold increase compared to control cells at day 15 (FIG. 25).

CD19.CAR T cells = assay: Apoptosis, necrosis, mitochondrial membrane potential and glutathione content (Amberglass panel); conditions: for cells with low mitochondrial membrane potential (Q1) / cellular health: high mitochondrial membrane potential and high GSH content (Q2): day 15; for apoptosis: day 15, FIG. 31A top left; for necrosis: day 15, FIG. 31A top right
Method: Primary T cells were activated as described (Example 3), and transduced with a lentivirus encoding for CD19.CAR co-expressing shUSP16 #1, shUSP16 #2 or a scrambled shRNA (Control). Cells were cultured in IL-2 and sorted between days 6-13 for EGFRt. At day 15 cells were stained and analyzed by MACSQuant for apoptosis, necrosis, mitochondrial membrane potential and glutathione content (GSH). The data generation was powered by Amberglass technology made available by Mojave Bio in the form of a dehydrated panel of reagents on a 96 well plate.

Substance | Axin-2 expression, fold change vs Control (Axin-2) | Axin-2 expression vs Control (Axin-2; GD2.CAR) | LEF1 expression, fold change vs Control (LEF1) | LEF1 expression vs Control (LEF1) | LEF1 expression, fold increase over Control (LEF1; primary T cells, day 15) | T cell expansion, fold change vs Control ([1]; CD19.CAR, day 15, n=4) | T cell expansion, fold change vs Control ([1]; GD2.CAR, day 15, n=3) | cells with low mitochondrial membrane potential (Q1) (CD19.CAR T cells) | cellular health: high mitochondrial membrane potential and high GSH content (Q2) (CD19.CAR T cells) | apoptosis (CD19.CAR T cells) | necrosis (CD19.CAR T cells)
shUSP16 #1: shRNA targeting USP16, 5′-GACTGTAAGACTGACAATAAA-3′ (SEQ ID NO: 8), pSIH backbone or co-expressed in CAR plasmid | 1.998 | 3.269 | 1.82 | 1.795 | 1.650 | 2.259 | 2.147 | 7.62 percentage of cells | 89.9 | 9.40 | 4.75
shUSP16 #2: shRNA targeting USP16, 5′-TATATCAGTTCACCCGTAAT-3′ (SEQ ID NO: 9), pSIH backbone or co-expressed in CAR plasmid | 1.261 |  | 1.579 | 1.718 |  | 3.036 | 3.036 | 9.87 percentage of cells | 85.7 | 8.25 | 3.96
